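Compound exposure: 48 hours, 5 concentrations, 96-well plates. GI50 = concentration required for 50% inhibition of growth.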 The source made the active and inactive calls. No stated cut-off is given here; in the data, active = GI50 up to about 1.1 µM and inactive = higher.
Legend:
Assay in all cases: NCI-60 cell line screen, 48 h
MDA-MB-435 = system: MDA-MB-435
Hs-578T = system: Hs-578T
OVCAR-3 = system: OVCAR-3
SK-MEL-5 = system: SK-MEL-5
UACC-257 = system: UACC-257
DU-145 = system: DU-145
EKVX = system: EKVX
HCT-116 = system: HCT-116
HT-29 = system: HT-29
CCRF-CEM = system: CCRF-CEM
SK-OV-3 = system: SK-OV-3
A549 = system: A549
HCT-15 = system: HCT-15
SK-MEL-2 = system: SK-MEL-2
RPMI-8226 = system: RPMI-8226
NCI-H460 = system: NCI-H460
SF-539 = system: SF-539
NCI/ADR-RES = system: NCI/ADR-RES
A498 = system: A498

Structure (SMILES) | GI50 (MDA-MB-435) | GI50 (Hs-578T) | GI50 (OVCAR-3) | GI50 (SK-MEL-5) | GI50 (UACC-257) | GI50 (DU-145) | GI50 (EKVX) | GI50 (HCT-116) | GI50 (HT-29) | GI50 (CCRF-CEM) | GI50 (SK-OV-3) | GI50 (A549) | GI50 (HCT-15) [µM] | GI50 (SK-MEL-2) | GI50 (RPMI-8226) | GI50 (NCI-H460) | GI50 (SF-539) | GI50 (NCI/ADR-RES) | GI50 (A498)
N=C(N)NS(=O)(=O)c1ccc(NC(=O)c2ccc3nc4ccccc4c(O)c3c2)cc1 | > 100 µM (inactive) | > 100 µM (inactive) | > 100 µM (inactive) | > 100 µM (inactive) | > 100 µM (inactive) | > 100 µM (inactive) | > 100 µM (inactive) | > 100 µM (inactive) | > 100 µM (inactive) | > 100 µM (inactive) | > 100 µM (inactive) | > 100 µM (inactive) | > 100 | > 100 µM (inactive) | > 100 µM (inactive) | > 100 µM (inactive) | > 100 µM (inactive) | > 100 µM (inactive) | –
COCN1C(=O)[C@@H]2CCCN2C(=O)c2cc(N)ccc21 | > 100 µM (inactive) | > 100 µM (inactive) | – | – | > 100 µM (inactive) | > 100 µM (inactive) | > 100 µM (inactive) | > 100 µM (inactive) | > 100 µM (inactive) | – | > 100 µM (inactive) | > 100 µM (inactive) | > 100 | > 100 µM (inactive) | – | – | > 100 µM (inactive) | > 100 µM (inactive) | > 100 µM (inactive)
CC(=O)NC(CSC1=C2NC(=O)\C=C/C=C\C=C/C(C)C(O)CC(=O)/C(C)=C\CC(O)/C=C\C(C)C(O)C(C)C=C(C)C(=O)c3c(O)c(C)cc(c3C1=O)C2=O)C(=O)O (stereo not drawn) | > 100 µM (inactive) | 27.5 µM (inactive) | 96.6 µM (inactive) | 39.3 µM (inactive) | 41.8 µM (inactive) | 61.8 µM (inactive) | > 100 µM (inactive) | 36.4 µM (inactive) | 47.2 µM (inactive) | 22.3 µM (inactive) | > 100 µM (inactive) | > 100 µM (inactive) | > 100 | 80.7 µM (inactive) | – | 94 µM (inactive) | > 100 µM (inactive) | > 100 µM (inactive) | > 100 µM (inactive)
CCCCSC1=N/C(=C\c2ccccc2O)C(=O)N1 | > 100 µM (inactive) | > 100 µM (inactive) | > 100 µM (inactive) | – | 31.2 µM (inactive) | > 100 µM (inactive) | 35.7 µM (inactive) | 40.3 µM (inactive) | 70.6 µM (inactive) | – | > 100 µM (inactive) | 20.7 µM (inactive) | 96.6 | 57.8 µM (inactive) | 75.5 µM (inactive) | 53.2 µM (inactive) | 41.5 µM (inactive) | 66.7 µM (inactive) | 28.2 µM (inactive)
Clc1ccccc1-c1nc(-c2ccncc2)no1 [PIFEXOLE] | 48.6 µM (inactive) | 36.6 µM (inactive) | 44.9 µM (inactive) | 22.9 µM (inactive) | 37.8 µM (inactive) | 87.9 µM (inactive) | 16.1 µM (inactive) | 43.4 µM (inactive) | 66.1 µM (inactive) | – | > 100 µM (inactive) | 69 µM (inactive) | 44.7 | > 100 µM (inactive) | 44.2 µM (inactive) | 58.7 µM (inactive) | > 100 µM (inactive) | 30.9 µM (inactive) | 37.6 µM (inactive)
CC(=O)Oc1ccc(/C=C/C(=O)OCCCOC(=O)/C=C/c2ccc(OC(C)=O)c(OC(C)=O)c2)cc1OC(C)=O | > 100 µM (inactive) | > 100 µM (inactive) | > 100 µM (inactive) | > 100 µM (inactive) | > 100 µM (inactive) | > 100 µM (inactive) | > 100 µM (inactive) | 58.1 µM (inactive) | > 100 µM (inactive) | – | > 100 µM (inactive) | > 100 µM (inactive) | > 100 | > 100 µM (inactive) | > 100 µM (inactive) | > 100 µM (inactive) | > 100 µM (inactive) | > 100 µM (inactive) | > 100 µM (inactive)
O=c1[nH]c(=O)n(C2OC(CO)C(O)C2O)c2nc(-c3ccc(-c4ccccc4)cc3)cnc12 (stereo not drawn) | > 100 µM (inactive) | > 100 µM (inactive) | – | 40.6 µM (inactive) | > 100 µM (inactive) | > 100 µM (inactive) | > 100 µM (inactive) | > 100 µM (inactive) | > 100 µM (inactive) | > 100 µM (inactive) | > 100 µM (inactive) | > 100 µM (inactive) | > 100 | > 100 µM (inactive) | > 100 µM (inactive) | > 100 µM (inactive) | > 100 µM (inactive) | > 100 µM (inactive) | > 100 µM (inactive)
NCCCC[C@H](N)C(=O)Nc1ccc(-c2nc3ccccc3s2)cc1 | 18.7 µM (inactive) | 23.1 µM (inactive) | 20.4 µM (inactive) | 33.4 µM (inactive) | 70 µM (inactive) | 21.7 µM (inactive) | 10.1 µM (inactive) | 19 µM (inactive) | 16.5 µM (inactive) | 9.89 µM (inactive) | 21.1 µM (inactive) | 31.2 µM (inactive) | 17.4 | 29.1 µM (inactive) | – | 16.9 µM (inactive) | – | 21.6 µM (inactive) | 22.1 µM (inactive)

Source: ChEMBL document CHEMBL1201862, “PubChem BioAssay data set” (2004)
